# Measured values published in US12128048B2, “Combination therapies using PRMT5 inhibitors for the treatment of cancer” (Mirati Therapeutics, Inc., priority 2021, dated 2024).
# Experiments:
# [1] = system: LU99 PRMT5-041 lung tumor xenograft model; test: LU99 PRMT5-041 tumor xenograft, Example 3 (MRTX1719 with or without MRTX849); format: in vivo, mice; conditions: MRTX1719 50 mg/kg PO QD, MRTX849 30 mg/kg PO QD
# Description: (§1) Immunodeficient female nu/nu mice were implanted with 5×10^6 LU99 lung cancer cells in 50% Matrigel. Tumors were measured using calipers until they reached approximately 150-200 mm^3. Animals were randomized to receive A) vehicle (0.5% methylcellulose (4000 cps)/0.2% Tween80 in water), B) a PRMT5 inhibitor, C) KRAS^G12C inhibitor, or D) the PRMT5 inhibitor and KRAS^G12C inhibitor, all administered orally (PO) for 21 days. Tumor volume was measured twice a week (n=5/treatment group). Average tumor volume and standard error of the mean was calculated and plotted at each study day in GraphPad.
# [2] = system: SW1573 PRMT5-044 lung tumor xenograft model; test: SW1573 PRMT5-044 tumor xenograft, Example 4 (MRTX1719 with or without MRTX849); format: in vivo, mice; conditions: MRTX1719 50 mg/kg PO QD, MRTX849 100 mg/kg PO QD
# Description: as §1
# [3] = system: KRAS^G12C and CDKN2A/MTAP^DEL lung tumor xenograft LU99 model; test: LU99 lung tumor xenograft, Example 2 (MRTX7477 with or without MRTX849); conditions: MRTX7477 200 mg/kg PO BID, MRTX849 30 mg/kg PO QD
# Description: as §1
# [4] = system: KRAS^G12C and CDKN2A/MTAP^DEL lung tumor xenograft LU99 model; test: LU99 lung tumor xenograft, Example 1 (MRTX9768 with or without MRTX849); conditions: MRTX9768 100 mg/kg PO BID, MRTX849 30 mg/kg PO QD
# Description: as §1
compound,measurement,setting,value
C=C(F)C(=O)N1CCN(c2nc(OC[C@@H]3CCCN3C)nc3c2CCN(c2cccc4cccc(Cl)c24)C3)C[C@@H]1CC#N [MRTX849],Tumor Volume Mean,[1]; Day 0,154 mm^3
same,Tumor Volume Mean,[1]; Day 5,142 mm^3
same,Tumor Volume Mean,[1]; Day 8,117 mm^3
same,Tumor Volume Mean,[1]; Day 12,87 mm^3
same,Tumor Volume Mean,[1]; Day 15,81 mm^3
same,Tumor Volume Mean,[1]; Day 20,84 mm^3
same,Tumor Volume Mean,[1]; Day 22,103 mm^3
same,Tumor Volume Mean,[2]; Day 0,139 mm^3
same,Tumor Volume Mean,[2]; Day 3,150 mm^3
same,Tumor Volume Mean,[2]; Day 8,188 mm^3
same,Tumor Volume Mean,[2]; Day 10,236 mm^3
same,Tumor Volume Mean,[2]; Day 14,285 mm^3
same,Tumor Volume Mean,[2]; Day 17,320 mm^3
same,Tumor Volume Mean,[2]; Day 26,361 mm^3
Cn1ncc(-c2ccc3c(=O)[nH]nc(CN)c3c2)c1-c1ccc2ccccc2c1C#N [MRTX7477],Tumor Volume,[3]; Day 1,214.5 mm^3
same,Tumor Volume,[3]; Day 5,210.7 mm^3
same,Tumor Volume,[3]; Day 8,177.1 mm^3
same,Tumor Volume,[3]; Day 12,185.3 mm^3
same,Tumor Volume,[3]; Day 15,189.1 mm^3
same,Tumor Volume,[3]; Day 19,229.5 mm^3
same,Tumor Volume,[3]; Day 21,267.5 mm^3
same,Tumor Volume,[3]; Day −2,129.4 mm^3
Cn1ncc(-c2ccc3c(=O)[nH]nc(CN)c3c2)c1-c1c(F)cc2ccccc2c1C#N [MRTX9768],Tumor Volume Mean,[4]; Day 0,183.59 mm^3
same,Tumor Volume Mean,[4]; Day 3,265.26 mm^3
same,Tumor Volume Mean,[4]; Day 7,331.80 mm^3
same,Tumor Volume Mean,[4]; Day 10,349.53 mm^3
same,Tumor Volume Mean,[4]; Day 14,406.58 mm^3
same,Tumor Volume Mean,[4]; Day 17,431.91 mm^3
same,Tumor Volume Mean,[4]; Day 21,458.95 mm^3
